The values below come from the supplement of paper PMC10307832.

Holding throughout (experiment): relative viability (nuclei count vs DMSO), 5 days (fraction); higher = more cells survive
Compound in the assay “Sunitinib + Palbociclib”: CCN(CC)CCNC(=O)c1c(C)[nH]c(/C=C2\C(=O)Nc3ccc(F)cc32)c1C [Sunitinib] + CC(=O)c1c(C)c2cnc(Nc3ccc(N4CCNCC4)cn3)nc2n(C2CCCC2)c1=O [Palbociclib] (partner 0.5 µM)
In short, it runs like this:
(§1)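 After 5 days of treatment, lung cancer cells in 1536-well plates were fixed and stained in a single step (final 0.05% Triton X-100, 1% formaldehyde, 1 ug/ml Hoechst) and their nuclei counted on 4× images. Treatment had been applied by pin tool the day after seeding as one drug alone or as a fixed anchor-drug dose with five library-drug doses (not always all listed) in √10 steps. Relative viability is the nuclei count of treated wells divided by that of vehicle wells, and values are medians of duplicate plates.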

Compound in the assay “Sunitinib + Pictilisib”: CCN(CC)CCNC(=O)c1c(C)[nH]c(/C=C2\C(=O)Nc3ccc(F)cc32)c1C [Sunitinib] + CS(=O)(=O)N1CCN(Cc2cc3nc(-c4cccc5[nH]ncc45)nc(N4CCOCC4)c3s2)CC1 [Pictilisib] (partner 1 µM)
The method, boiled down: as §1

Compound in the assay “Sunitinib + Phenformin”: CCN(CC)CCNC(=O)c1c(C)[nH]c(/C=C2\C(=O)Nc3ccc(F)cc32)c1C [Sunitinib] + N=C(N)NC(=N)NCCc1ccccc1 [Phenformin] (partner 250 µM)
In short, it runs like this:
as §1

Compound in the assay “Sunitinib + Decitabine”: CCN(CC)CCNC(=O)c1c(C)[nH]c(/C=C2\C(=O)Nc3ccc(F)cc32)c1C [Sunitinib] + Nc1ncn([C@H]2C[C@H](O)[C@@H](CO)O2)c(=O)n1 [Decitabine] (partner 2 µM)
The method, boiled down: as §1

For NCI-H2126, the relative viability was 0.341 in the assay with Sunitinib + Palbociclib (first compound 0.02 µM); 0.36 with Sunitinib + Palbociclib (first compound 0.06325 µM); 0.37 in the assay with Sunitinib + Palbociclib (first compound 0.2 µM); 0.338 with Sunitinib + Palbociclib (first compound 0.6325 µM); 0.359 with Sunitinib + Palbociclib (first compound 2 µM); 0.465 with Sunitinib + Pictilisib (first compound 0.02 µM). Further, the relative viability with Sunitinib + Pictilisib (first compound 0.06325 µM) is 0.55; in the assay with Sunitinib + Pictilisib (first compound 0.2 µM), 0.517; with Sunitinib + Pictilisib (first compound 0.6325 µM), 0.563; in the assay with Sunitinib + Pictilisib (first compound 2 µM), 0.502; in the assay with Sunitinib + Phenformin (first compound 0.02 µM) it was 0.509; in the assay with Sunitinib + Phenformin (first compound 0.06325 µM), 0.534. Further, the relative viability is 0.537 with Sunitinib + Phenformin (first compound 0.2 µM); 0.561 in the assay with Sunitinib + Phenformin (first compound 0.6325 µM); 0.517 in the assay with Sunitinib + Phenformin (first compound 2 µM); 0.589 in the assay with Sunitinib + Decitabine (first compound 0.02 µM); 0.572 with Sunitinib + Decitabine (first compound 0.06325 µM); 0.532 with Sunitinib + Decitabine (first compound 0.2 µM). Further, the relative viability with Sunitinib + Decitabine (first compound 0.6325 µM) was determined as 0.592; in the assay with Sunitinib + Decitabine (first compound 2 µM) it was 0.579.

Consider COR-L23, for which the relative viability with Sunitinib + Palbociclib (first compound 0.02 µM) worked out at 0.305; with Sunitinib + Palbociclib (first compound 0.06325 µM), 0.402; with Sunitinib + Palbociclib (first compound 0.2 µM) it was 0.324; with Sunitinib + Palbociclib (first compound 0.6325 µM) it was 0.295; in the assay with Sunitinib + Palbociclib (first compound 2 µM), 0.363; with Sunitinib + Pictilisib (first compound 0.02 µM), 0.788. The relative viability with Sunitinib + Pictilisib (first compound 0.06325 µM) was 1.04; with Sunitinib + Pictilisib (first compound 0.2 µM), 0.97; with Sunitinib + Pictilisib (first compound 0.6325 µM) it was 0.881; with Sunitinib + Pictilisib (first compound 2 µM) it was 0.812; with Sunitinib + Phenformin (first compound 0.02 µM), 0.421; in the assay with Sunitinib + Phenformin (first compound 0.06325 µM), 0.482. The relative viability in the assay with Sunitinib + Phenformin (first compound 0.2 µM) is 0.469; in the assay with Sunitinib + Phenformin (first compound 0.6325 µM), 0.443; in the assay with Sunitinib + Phenformin (first compound 2 µM), 0.461; in the assay with Sunitinib + Decitabine (first compound 0.02 µM), 0.435; in the assay with Sunitinib + Decitabine (first compound 0.06325 µM), 0.482; with Sunitinib + Decitabine (first compound 0.2 µM), 0.426. For the same cell line, the relative viability with Sunitinib + Decitabine (first compound 0.6325 µM) was 0.505; in the assay with Sunitinib + Decitabine (first compound 2 µM), 0.451.

Regarding NCI-H1792, the relative viability with Sunitinib + Palbociclib (first compound 0.02 µM) worked out at 0.627; with Sunitinib + Palbociclib (first compound 0.06325 µM) it was 0.661; with Sunitinib + Palbociclib (first compound 0.2 µM), 0.763; with Sunitinib + Palbociclib (first compound 0.6325 µM) it was 0.612; with Sunitinib + Palbociclib (first compound 2 µM), 0.734; in the assay with Sunitinib + Pictilisib (first compound 0.02 µM) it was 0.242. Besides, the relative viability with Sunitinib + Pictilisib (first compound 0.06325 µM) is 0.291; with Sunitinib + Pictilisib (first compound 0.2 µM), 0.243; with Sunitinib + Pictilisib (first compound 0.6325 µM), 0.242; in the assay with Sunitinib + Pictilisib (first compound 2 µM), 0.265; in the assay with Sunitinib + Phenformin (first compound 0.06325 µM) it was 0.381; with Sunitinib + Phenformin (first compound 0.2 µM) it was 0.351. For the same cell line, the relative viability with Sunitinib + Phenformin (first compound 0.6325 µM) stood at 0.418; in the assay with Sunitinib + Phenformin (first compound 2 µM), 0.31; in the assay with Sunitinib + Decitabine (first compound 0.02 µM) it was 0.457; in the assay with Sunitinib + Decitabine (first compound 0.06325 µM), 0.594; with Sunitinib + Decitabine (first compound 0.2 µM), 0.625; in the assay with Sunitinib + Decitabine (first compound 0.6325 µM) it was 0.527. The relative viability in the assay with Sunitinib + Decitabine (first compound 2 µM) turned out to be 0.591.

As to NCI-H520, the relative viability with Sunitinib + Palbociclib (first compound 0.02 µM) was 0.237; in the assay with Sunitinib + Palbociclib (first compound 0.06325 µM), 0.248; in the assay with Sunitinib + Palbociclib (first compound 0.2 µM) it was 0.224; with Sunitinib + Palbociclib (first compound 0.6325 µM), 0.27; in the assay with Sunitinib + Palbociclib (first compound 2 µM), 0.267; with Sunitinib + Pictilisib (first compound 0.02 µM), 0.244. Besides, the relative viability with Sunitinib + Pictilisib (first compound 0.06325 µM) was 0.32; with Sunitinib + Pictilisib (first compound 0.2 µM) it was 0.348; in the assay with Sunitinib + Pictilisib (first compound 0.6325 µM), 0.278; in the assay with Sunitinib + Pictilisib (first compound 2 µM), 0.273; in the assay with Sunitinib + Phenformin (first compound 0.02 µM), 0.674; in the assay with Sunitinib + Phenformin (first compound 0.06325 µM) it was 0.685. Moreover, the relative viability was 0.471 with Sunitinib + Phenformin (first compound 0.2 µM); 0.661 with Sunitinib + Phenformin (first compound 0.6325 µM); 0.424 with Sunitinib + Phenformin (first compound 2 µM); 0.487 with Sunitinib + Decitabine (first compound 0.02 µM); 0.499 with Sunitinib + Decitabine (first compound 0.06325 µM); 0.55 with Sunitinib + Decitabine (first compound 0.2 µM). In addition, the results for the relative viability with Sunitinib + Decitabine (first compound 0.6325 µM) and in the assay with Sunitinib + Decitabine (first compound 2 µM) were 0.577 and 0.537, respectively.

In the case of COR-L 105, the relative viability with Sunitinib + Palbociclib (first compound 0.02 µM) is 0.431; with Sunitinib + Palbociclib (first compound 0.06325 µM), 0.399; with Sunitinib + Palbociclib (first compound 0.2 µM), 0.436; in the assay with Sunitinib + Palbociclib (first compound 0.6325 µM) it was 0.405; with Sunitinib + Palbociclib (first compound 2 µM), 0.458; with Sunitinib + Pictilisib (first compound 0.02 µM) it was 0.371. Besides, the relative viability was determined as 0.415 in the assay with Sunitinib + Pictilisib (first compound 0.06325 µM); 0.569 with Sunitinib + Pictilisib (first compound 0.2 µM); 0.364 in the assay with Sunitinib + Pictilisib (first compound 0.6325 µM); 0.409 with Sunitinib + Pictilisib (first compound 2 µM); 0.415 with Sunitinib + Phenformin (first compound 0.02 µM); 0.544 in the assay with Sunitinib + Phenformin (first compound 0.06325 µM). Besides, the relative viability with Sunitinib + Phenformin (first compound 0.2 µM) amounted to 0.496; in the assay with Sunitinib + Phenformin (first compound 0.6325 µM), 0.49; with Sunitinib + Phenformin (first compound 2 µM), 0.471; with Sunitinib + Decitabine (first compound 0.02 µM), 0.692; with Sunitinib + Decitabine (first compound 0.06325 µM), 0.734; with Sunitinib + Decitabine (first compound 0.2 µM), 0.663. Further, the values for the relative viability with Sunitinib + Decitabine (first compound 0.6325 µM) and with Sunitinib + Decitabine (first compound 2 µM) were 0.649 and 0.607, respectively.

On to HCC-827, for which the relative viability was found to be 0.487 with Sunitinib + Palbociclib (first compound 0.02 µM); 0.506 with Sunitinib + Palbociclib (first compound 0.06325 µM); 0.542 with Sunitinib + Palbociclib (first compound 0.2 µM); 0.478 in the assay with Sunitinib + Palbociclib (first compound 0.6325 µM); 0.534 with Sunitinib + Palbociclib (first compound 2 µM); 1.01 in the assay with Sunitinib + Pictilisib (first compound 0.02 µM). The relative viability in the assay with Sunitinib + Pictilisib (first compound 0.06325 µM) was 1.09; in the assay with Sunitinib + Pictilisib (first compound 0.2 µM), 1.11; in the assay with Sunitinib + Pictilisib (first compound 0.6325 µM) it was 1.11; with Sunitinib + Pictilisib (first compound 2 µM) it was 1.13; in the assay with Sunitinib + Phenformin (first compound 0.02 µM), 0.366; in the assay with Sunitinib + Phenformin (first compound 0.06325 µM), 0.401. Besides, the relative viability in the assay with Sunitinib + Phenformin (first compound 0.2 µM) came out at 0.439; with Sunitinib + Phenformin (first compound 0.6325 µM) it was 0.403; with Sunitinib + Phenformin (first compound 2 µM) it was 0.291; with Sunitinib + Decitabine (first compound 0.02 µM), 0.324; with Sunitinib + Decitabine (first compound 0.06325 µM) it was 0.314; in the assay with Sunitinib + Decitabine (first compound 0.2 µM), 0.31. For the same cell line, the relative viability with Sunitinib + Decitabine (first compound 0.6325 µM) turned out to be 0.322; in the assay with Sunitinib + Decitabine (first compound 2 µM), 0.292.
